In the OPERA property sets (Mansouri et al. 2018):

Compound	melting point [°C]	boiling point [°C]	further results
COc1ccc(C(=O)c2ccccc2)c(O)c1	65.5	–	ready biodegradability: not readily biodegradable; log10 BCF (fish): 1.97
C#C[C@]1(OC(C)=O)CC[C@H]2[C@@H]3CCC4=CC(=O)CC[C@@H]4[C@H]3CC[C@@]21C	162	–	–
Oc1cccc(O)c1O	133	309	log10 vapour pressure (mmHg): -3.32; ready biodegradability: readily biodegradable
CC(C)COC(=O)OCC(C)C	–	190	–
CC(/C=C/C=C(C)/C=C/[C@@]12O[C@]1(C)C[C@@H](O)CC2(C)C)=C\C=C\C=C(C)\C=C\C=C(C)\C=C\[C@@]12O[C@]1(C)C[C@@H](O)CC2(C)C	208	–	–
COC(=O)C1(S(=O)(=O)c2ccc(Cl)cc2)CC1	116	–	–
C1CCC2C(C1)CCC1C3CCCCC3CCC21 (stereo not drawn)	115	353	–
CCCC(CCC)CCC	–	158	–
Cc1ccc2cccc(C)c2n1	27	255	–
CC(=O)NCCCCCC(=O)O	104	–	–
CCc1cc2c(cc1C(C)=O)C(C)(C)CCC2(C)C	46.5	–	–
CCC(O)(COC(N)=O)c1ccccc1 (stereo not drawn)	55	–	–
NC(Cc1ccccc1)C(=O)O (stereo not drawn)	–	–	ready biodegradability: readily biodegradable
CCOC(=O)C(C#N)(CC)CC	–	214	–
C#Cc1ccc(C)cc1	–	169	–
O=[Se](O)c1ccccc1	124	–	–
N#Cc1ccc(Cl)c([N+](=O)[O-])c1	99	–	–
O=C(O)c1cc(I)cc(I)c1O	236	–	–
COc1ccc(C(=O)OC(=O)c2ccc(OC)cc2)cc1	94.5	–	–
Clc1ccc2c(Cl)c(Cl)cc(Cl)c2c1	–	–	log10 Koa: 8.08
CC(=O)c1ccccc1Cl	–	–	ready biodegradability: not readily biodegradable
CC(C)(c1ccccc1)c1ccccc1	29	282	–
COCC(C)C	–	58.6	log10 vapour pressure (mmHg): 2.32
CN(C)c1cccc2ccccc12	–	280	–
O=[N+]([O-])c1ccccc1CCl	51	–	–

Compound	melting point [°C]	boiling point [°C]	further results
CCCCOC(=O)N(C)SN(C)C(=O)Oc1cccc2c1OC(C)(C)C2	–	–	log10 vapour pressure (mmHg): -7.53
C#CC(=O)OC	–	104	–
O[C@@H]1[C@@H](O)[C@@H]2OC[C@@H](O2)[C@H]1O	183	–	log10 vapour pressure (mmHg): -7.12
CCCCCCCCCCCCCC(CCCCCCCCCCCC)CCCCCCCCCCCC	13.7	–	–
NNCCO	-70	219	–
O=[N+]([O-])c1ccco1	30	–	–
CC1CCCNC1=O (stereo not drawn)	55.3	250	–
CCOC(=O)c1ccc(C(=O)OCC)cc1	44	302	–
Nc1ccc(Cl)c(Cl)c1	72	272	log10 Koc (L/kg): 2.29; log10 vapour pressure (mmHg): -2.2; ready biodegradability: not readily biodegradable; log10 BCF (fish): 1.11; log10 biotransformation half-life (days) (fish): -1.09
COc1ccc(C(=O)c2ccccc2)cc1	61.5	355	–
C/C(Cl)=C/C(=O)O	61	195	–
OCC1c2ccccc2-c2ccccc21	106	–	–
FCC(F)(F)OC(F)F	–	43	log10 vapour pressure (mmHg): 2.57
CCN(CC)CCNC(=O)c1cc(Cl)c(N)cc1OC	147	–	–
CCC(C)(C)CC(C)C	-113	131	log10 vapour pressure (mmHg): 1.13
CCCCCCCCCCCCCCCCCCNC	44	–	–
CC#CC(=O)O	78	203	–
CCN(CC)c1ccc(Cl)cc1	45.5	252	–
CN(C)C(=O)Cl	-33	167	log10 vapour pressure (mmHg): 0.29
CC(Cl)Cl	-96.9	57.4	log10 Henry constant (atm·m³/mol): -2.25; log10 Koa: 2.41; log10 Koc (L/kg): 1.48; log10 vapour pressure (mmHg): 2.36; ready biodegradability: not readily biodegradable
NCCCCCCNCCCCCCN	33	–	–
O=C1OC(=O)c2c(I)c(I)c(I)c(I)c21	328	–	–
Cn1cncc1C[C@H]1COC(=O)[C@@H]1[C@@H](O)c1ccccc1	179	–	–
O=S(=O)(O)OCCOc1ccc(Cl)cc1Cl	170	–	–
